How the values were obtained:
translation = details: ref 9p; cited from earlier work
[1] = system: cap-dependent translation (Firefly luciferase); assay type: biochemical; details: 1 μM compound, Krebs-2 extracts, relative to DMSO
HCV = assay type: cell-based; details: time-of-addition; racemic compounds
[2] = system: HCV IRES-dependent translation (Renilla luciferase); assay type: biochemical; details: 1 μM compound, Krebs-2 extracts, relative to DMSO
[3] = system: hepatitis C viral (HCV) entry; details: at a low μM concentration; cited from earlier work
[4] = system: Dengue virus (serotype 2, Thailand 16681 strain); assay type: cell-based; details: Huh7.5.1 cells, MOI 0.1, 2 μM compound for 3 h, RNA 48 h post-infection
Huh7.5.1 cells = assay: Cytotoxicity, CellTiter-Glo Cell Viability Luminescent Assay; assay type: cell-based
[5] = system: HCV (HCVcc-Luc) infection of Huh7.5.1 cells; assay: HCV infection inhibition assay; assay type: cell-based; details: relative to aglaroxin C (6)

Compound: COc1ccc([C@@]23Oc4cc(OC)cc(OC)c4[C@]2(O)C2=C(C(=O)N4CCC[C@H]4N2)[C@H]3c2ccccc2)cc1 [compound 5, aglaiastatin]
- translation inhibition (in words) (translation): promising translation inhibitor

Compound: CONC(=O)[C@H]1[C@@H](O)[C@@]2(O)c3c(OC)cc(OC)cc3O[C@@]2(c2ccc(OC)cc2)[C@@H]1c1ccccc1 [CR-1–31-B]
- translation inhibition of firefly luciferase (cap-dependent) [1]: strong inhibition

Compound: aglaroxin C [compound 6]
- anti-HCV activity, compound added 3 h after infection was initiated (HCV): partially lost their activity
- anti-HCV activity, compound added together with the virus (HCV): maximal anti-HCV activity
- translation inhibition (in words) (translation): only moderate translation inhibition
- inhibition of HCV mRNA (IRES-dependent) translation [2]: not inhibited
- inhibition of HCV entry into host cells [3]: inhibited
- translation inhibition of firefly luciferase (cap-dependent) [1]: minimal

Compound: COc1ccc([C@@]23Oc4cc(OC)cc(OC)c4[C@]2(O)[C@H](O)[C@H](C(=O)N(C)C)[C@H]3c2ccccc2)cc1 [rocaglamide]
- inhibition of Dengue virus infection [4]: inhibited

Compound: COc1ccc([C@@]23Oc4cc(OC)cc(OC)c4[C@]2(O)c2nc(-c4cccc(OC)c4)[nH]c(=O)c2[C@H]3c2ccccc2)cc1 [12s]
- anti-HCV activity, compound added 3 h after infection was initiated (HCV): partially lost their activity
- anti-HCV activity, compound added together with the virus (HCV): maximal anti-HCV activity
- cell death at 200 μM (Huh7.5.1 cells): less than 50%
- cell death reached (Huh7.5.1 cells): < 50%
- maximum cytotoxicity plateau, cell death (Huh7.5.1 cells): 35%
- inhibition of HCV mRNA (IRES-dependent) translation [2]: not inhibited
- inhibition of HCV infection in comparison to 6 (fold) [5]: three-fold greater inhibition
- translation inhibition of firefly luciferase (cap-dependent) [1]: minimal

Source: publication PMC6583776 (Journal of the American Chemical Society, 2019)
